According to patent US6335348B1, “Nitrogen-containing linear and azepinyl/ compositions and uses for vision and memory disorders” (GPI NIL Holdings, Inc., priority 1998, dated 2002):
Read-outs that look alike come from different tables or passages of the source. Marks after values point to notes of the source that are not given here.

What was measured:
FKBP12 = FKBP12 (Homo sapiens, UniProt P62942); experiment: Ki test procedure: inhibition of peptidyl-prolyl isomerase (rotamase) activity, chymotrypsin-coupled assay; format: biochemical
From the text: The inhibition of the prolyl peptidyl cis-trans isomerase activity of FKBP may be measured as an indicator of this affinity. Inhibition of the peptidyl-prolyl isomerase (rotamase) activity of the compounds used in the inventive methods and pharmaceutical compositions can be evaluated by known methods described in the literature (Harding et al., Nature, 1989, 341:758-760; Holt et al. J. Am. Chem. Soc., 115:9923-9938). […] The cis-trans isomerization of an alanine-proline bond in a model substrate, N-succinyl-[…]-nitroanilide, is monitored spectrophotometrically in a chymotrypsin-coupled assay, which releases para-nitroanilide from the trans form of the substrate. The inhibition of this reaction caused by the addition of different concentrations of inhibitor is determined, and the data is analyzed as a change in first-order rate constant as a function of inhibitor concentration to yield the apparent Ki values. […] The reaction is initiated by the addition of […] of substrate (succinyl-[…]-nitroanilide, 5 mg/mL in 2.35 mM LiCl in trifluoroethanol). The absorbance at 390 nm versus time is monitored for 90 seconds using a spectrophotometer and the rate constants are determined from the absorbance versus time data files.

[1] = tested on: retinal ganglion cell axons; experiment: Protection of retinal ganglion cell axons from degeneration 14 days after optic nerve transection (Table V); format: in vivo; conditions: ± SEM
From the text: Efficacy of representative compounds from different immunophilin ligand series in protecting retinal ganglion cell axons from degeneration following optic nerve transection is set forth in Table V.

[2] = Clearance (Table V comments); format: in vitro ADME
retinal ganglion cells = experiment: Example 13: optic nerve transection, 28 days treatment, sacrifice 90 days after transection; format: in vivo, Sprague Dawley rats; conditions: 10 mg/kg/day s.c. for 28 days
From the text: Retinal ganglion cells in adult male Sprague Dawley rats were retrogradely labeled by fluorogold injection in the LGNd and four days later the optic nerves were transected 5 mm behind the globe. […] All experimental animals and controls were sacrificed 90 days after transection.

[3] = tested on: retinal ganglion cells and optic nerve axons; experiment: Optic nerve transection, 14 or 28 day treatment, evaluated 90 days after transection; format: in vivo, Sprague Dawley rats; conditions: for Proximal optic nerve myelin basic protein Density: % areal coverage of optic nerve cross section, ± SEM; for Distal optic nerve: shrinkage of cross sectional area: compared to sham control
From the text: All eyes and optic nerves stumps were removed.

[4] = tested on: streptozotocin-induced diabetic rat; experiment: Streptozotocin-induced diabetic sensory neuropathy, hot plate and tail flick; format: in vivo, Male Wistar rats; conditions: lesioned animals treated for 6 weeks at 10 mg/kg s.c.
Description: The procedure involved using Male Wistar rats which were given a single injection of streptozotocin (65 mg/kg i.v.). Blood glucose levels were determined weekly for the first three weeks and on the last week of the experiment. Animals were evaluated weekly for signs of sensory neuropathy using the conventional hot plate and tail flick apparatus test procedures.

[5] = apparent Ki, Table C, read-out: Ki
[6] = Table V comments, read-out: Ki rotamase

Sequence of FKBP12 (P62942 whole entry, species assumed): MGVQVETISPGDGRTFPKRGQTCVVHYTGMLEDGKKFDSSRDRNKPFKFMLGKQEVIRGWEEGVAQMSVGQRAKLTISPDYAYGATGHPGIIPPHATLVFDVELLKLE

SMILES: COC(=O)C(=O)N1CCCCC1C(=O)OCCCC1CCCCC1 (centres unmarked) [Compound 18]
- Ki (FKBP12; [5]): 20 µM

SMILES: COC(=O)C(=O)N1CCCCC1C(=O)OCCCC1CCCC1 (centres unmarked) [Compound 19]
- Ki (FKBP12; [5]): 35 µM

SMILES: COc1ccc(CCCCOC(=O)C2CCCCN2C(=O)C(=O)c2cc(OC)c(OC)c(OC)c2)cc1 (centres unmarked) [Compound 25]
- Ki (FKBP12; [5]): 0.013 µM

SMILES: O=C(SCCCc1ccccc1)[C@@H]1CCCN1C(=O)NC12CC3CC4(CC(C3)(C4)C1)C2 [Compound B]
- Ki (FKBP12; [6]): 0.149 µM
- RT97 + RGC axon density 14 days after ON transection (% ON axons rescued) [1]: 100.0% ± 5.2% SEM

SMILES: CCC(C)(C)C(=O)C(=O)N1CCCC[C@H]1C(=O)SCCC(c1ccccc1)c1ccccc1 [Compound K]
- Clearance [2]: 4.5 µL/min
- RT97 + RGC axon density 14 days after ON transection (% ON axons rescued) [1]: 13.0% ± 4.2% SEM

SMILES: O=C(OCCCCc1ccccc1)[C@@H]1CCCCN1S(=O)(=O)Cc1ccccc1 [D]
- RT97 + RGC axon density 14 days after ON transection (% ON axons rescued) [1]: 58.4% ± 6.4% SEM

SMILES: CCC(C)(C)C(=O)C(=O)N1CCCC[C@H]1C(=O)OC(CCc1ccccc1)CCc1ccccc1 [E]
- Clearance [2]: 41.8 µL/min

SMILES: CCC(C)(C)C(=O)C(=O)N1CCS[C@@H]1C(=O)OCCCc1cccnc1 [F]
- RT97 + RGC axon density 14 days after ON transection (% ON axons rescued) [1]: 55.1% ± 5.9% SEM

SMILES: CCC(C)(C)C(=O)C(=O)N1CCC[C@H]1C(=O)OCCCc1cccnc1 [GPI 1046]
- preservation of axons in the proximal stump (RT97 neurofilament immunohistochemistry) (retinal ganglion cells): preserved the axons of virtually all protected neurons
- Proximal optic nerve myelin basic protein Density ([3]; ONT/14 days GPI 1046): did not alter the pattern of myelin degeneration
- Distal optic nerve: shrinkage of cross sectional area ([3]; ONT/14 days GPI 1046): did not protect against shrinkage of the distal stump
- Distal optic nerve myelin basic protein Density: myelin loss ([3]; ONT/14 days GPI 1046, cross sectional area multiplied by myelin density): slightly increase the density,of myelin
- RGC Counts ([3]; ONT/28 days GPI 1046, 10 mg/kg/day sc, 90 days after transection, mean density of Fluoro-gold labeled RGC in 400 μm × 400 μm gridfields): 67.9 +
- Proximal optic nerve myelin basic protein Density ([3]; ONT/28 days GPI 1046): dramatic preservation of the fascicular staining pattern
- ON axon Count ([3]; ONT/28 days GPI 1046, calculated by multiplying axonal density by ON area): 22.861*
- Distal optic nerve: shrinkage of cross sectional area ([3]; ONT/28 days GPI 1046): prevented cross sectional shrinkage
- Distal optic nerve myelin basic protein Density: myelin preservation ([3]; ONT/28 days GPI 1046, cross sectional area multiplied by myelin density): 99% myelin % myelin preservation
- latency in hot plate and tail flick [4]: improvement in latency

SMILES: CCC(C)(C)C(=O)C(=O)N1CCCC[C@H]1C(=O)O [G]
- Ki (FKBP12; [6]): > 10 µM
- RT97 + RGC axon density 14 days after ON transection (% ON axons rescued) [1]: 34.0% ± 4.8% SEM

SMILES: CCC(C)(C)C(=O)C(=O)N1CCCC[C@H]1C(N)=O [H]
- RT97 + RGC axon density 14 days after ON transection (% ON axons rescued) [1]: 30.3% ± 8.0% SEM

SMILES: CCC(C)(C)C(=O)C(=O)N1CCC[C@H]1C(=O)CCCCc1cccnc1 [J]
- RT97 + RGC axon density 14 days after ON transection (% ON axons rescued) [1]: 15.8% ± 4.8% SEM

SMILES: CCC(C)(C)C(=O)C(=O)N1CCC[C@H]1C(=O)O [L]
- Ki (FKBP12; [6]): ≥ 7.74 µM

SMILES: CCC(C)(C)C(=O)C(=O)N1CCC[C@H]1C(=O)SCCC(c1ccccc1)c1ccccc1 [M]
- RT97 + RGC axon density 14 days after ON transection (% ON axons rescued) [1]: −6.3% + 3.9% SEM
